Literature values as cited in patent publication US20020081339A1, “Treatment of inoperable tumors by stereotactic injection of microspheres” (priority 2000, published 2002).

Conditions: hydrophilic molecule

Compound: O=c1[nH]cc(F)c(=O)[nH]1 [5-FU, 5-fluorouracil]
- crossing of the blood-brain barrier: crosses the blood-brain barrier very weakly
